From patent US20150258106A1, “METHODS FOR ACUTE AND LONG-TERM TREATMENT OF SUBSTANCE ABUSE” (DEMERX, INC., priority 2014, published 2015)

Legend:
[1] = system: healthy, drug-free male volunteers; test: Pupillometry (pupillary miosis) in healthy volunteers; assay type: in vivo, human
Protocol: Pulse oximetry and capnography data were collected continuously using a GE Carescape B650 monitoring system from 2 hours prior to dosing and until six hours after dosing, and thereafter at 12, 24, 48 and 72 hours post-dosing. […] Pupillary miosis was assessed by pupillometry.
Summary statistics (means, standard deviations, and coefficients of variation) were determined for each dose group for safety laboratory test data, ECG and pharmacokinetic parameters, and pharmacodynamic variables. Categorical variables were analysed using counts and percentages. Dose-proportionality of AUC and Cmax was assessed using linear regression. The effect of dose on pharmacodynamic parameter values over time was assessed using two-factor analysis of variance (ANOVA). Pairwise comparisons (with Tukey-Kramer adjustment) between each dose group to the placebo were conducted at each time point using the least squares estimates obtained from the ANOVA, using SAS Proc Mixed (SAS ver 6.0).

[2] = system: opioid-dependent participants; test: Treatment emergent adverse events in opioid-dependent participants (randomized, placebo-controlled, double-blind trial); assay type: in vivo, human
Protocol: The efficacy of noribogaine in humans was evaluated in opioid-dependent participants in a randomized, placebo-controlled, double-blind trial. […] See U.S. application Ser. No. 14/214,157, filed Mar. 14, 2014 and Ser. No. 14/346,655, filed Mar. 21, 2014, which are incorporated herein by reference in their entireties.
Three cohorts of nine (9) subjects (6 administered noribogaine and 3 administered placebo in each cohort) were evaluated for tolerability, pharmacokinetics, and efficacy. Cohort 1 received a single dose of 60 mg noribogaine or placebo. Cohort 2 received a single dose of 120 mg noribogaine or placebo. Cohort 3 received a single dose of 180 mg noribogaine or placebo. […] Headaches were frequent in the placebo and 60 mg noribogaine treatment groups, but were attenuated in the 120 mg and 180 mg dose groups.

[3] = Pharmacokinetics of noribogaine in healthy volunteers, ascending single oral dose (plasma noribogaine and noribogaine glucuronide); details: for CL/F: healthy male volunteers, fasted, n = 6, mean (SD); for mean AUC/24 hr / time after administration at which mean Cmax was observed / mean AUC/24: fasting
[4] = opioid-dependent patients, 60, 120 or 180 mg single dose
[5] = opioid-dependent patients, single 60 mg dose, N = 6
[6] = opioid-dependent patients, single 120 mg dose, N = 6
[7] = opioid-dependent patients, single 180 mg dose, N = 6
[8] = single dose of 3 mg noribogaine free base
[9] = single dose of 10 mg noribogaine free base
[10] = single dose of 30 mg noribogaine free base
[11] = single dose of 60 mg noribogaine free base

CCC1CC2CC3c4[nH]c5ccc(O)cc5c4CCN(C2)C13 (stereo not drawn) [Noribogaine]
pupil diameter, each dose group compared with placebo by ANOVA ([1]; after adjusting for baseline differences, p>0.9): no statistically significant differences | pupillary constriction ([1]; healthy volunteers, 3-60 mg single oral dose): no evidence of pupillary constriction | Headaches ([2]; opioid-dependent patients, 60 mg treatment group): frequent | Headaches ([2]; opioid-dependent patients, 120 mg dose group): attenuated | Headaches ([2]; opioid-dependent patients, 180 mg dose group): attenuated | adverse effects of noribogaine observed [2, 4]: Few adverse effects | hallucinatory effects [2, 4]: no hallucinatory effects | Treatment Emergent Adverse Events: Catheter Site Infection [2, 5]: 0 | Treatment Emergent Adverse Events: Catheter Site Pain [2, 5]: 0 | Treatment Emergent Adverse Events: Catheter Site Related Reaction [2, 5]: 0 | Treatment Emergent Adverse Events: Cellulitis [2, 5]: 0 | Treatment Emergent Adverse Events: Diarrhoea [2, 5]: 0 | Treatment Emergent Adverse Events: Dry Mouth [2, 5]: 0 | Treatment Emergent Adverse Events: Ear and Labyrinth Disorders [2, 5]: 0 | Treatment Emergent Adverse Events: Epistaxis [2, 5]: 0 | Treatment Emergent Adverse Events: Euphoric Mood [2, 5]: 0 | Treatment Emergent Adverse Events: General Disorders and Administration Site Conditions [2, 5]: 0 | Treatment Emergent Adverse Events: Hyperaesthesia [2, 5]: 0 | Treatment Emergent Adverse Events: Infections and Infestations [2, 5]: 0 | Treatment Emergent Adverse Events: Limb Discomfort [2, 5]: 0 | Treatment Emergent Adverse Events: Malaise [2, 5]: 0 | Treatment Emergent Adverse Events: Nausea [2, 5]: 0 | Treatment Emergent Adverse Events: Oropharyngeal Pain [2, 5]: 0 | Treatment Emergent Adverse Events: Pseudoparalysis [2, 5]: 0 | Treatment Emergent Adverse Events: Respiratory, Thoracic and Mediastinal Disorders [2, 5]: 0 | Treatment Emergent Adverse Events: Rhinorrhoea [2, 5]: 0 | Treatment Emergent Adverse Events: Skin Discomfort [2, 5]: 0 | Treatment Emergent Adverse Events: Skin Irritation [2, 5]: 0 | Treatment Emergent Adverse Events: Skin and Subcutaneous Tissue Disorders [2, 5]: 0 | Treatment Emergent Adverse Events: Somnoience [2, 5]: 0 | Treatment Emergent Adverse Events: Tinnitus [2, 5]: 0 | Treatment Emergent Adverse Events: Tremor [2, 5]: 0 | Treatment Emergent Adverse Events: Urinary Tract Infection [2, 5]: 0 | Treatment Emergent Adverse Events: Vomiting [2, 5]: 0 | Treatment Emergent Adverse Events: Back Pain [2, 6]: 0 | Treatment Emergent Adverse Events: Catheter Site Infection [2, 6]: 0 | Treatment Emergent Adverse Events: Catheter Site Related Reaction [2, 6]: 0 | Treatment Emergent Adverse Events: Depressed Mood [2, 6]: 0 | Treatment Emergent Adverse Events: Dry Eye [2, 6]: 0 | Treatment Emergent Adverse Events: Dyspepsia [2, 6]: 0 | Treatment Emergent Adverse Events: Euphoric Mood [2, 6]: 0 | Treatment Emergent Adverse Events: Limb Discomfort [2, 6]: 0 | Treatment Emergent Adverse Events: Malaise [2, 6]: 0 | Treatment Emergent Adverse Events: Musculoskeletal and Connective Tissue Disorders [2, 6]: 0 | Treatment Emergent Adverse Events: Psychiatric Disorders [2, 6]: 0 | Treatment Emergent Adverse Events: Somnoience [2, 6]: 0 | Treatment Emergent Adverse Events: Urinary Tract Infection [2, 6]: 0 | Treatment Emergent Adverse Events: Catheter Site Infection [2, 7]: 0 | Treatment Emergent Adverse Events: Catheter Site Pain [2, 7]: 0 | Treatment Emergent Adverse Events: Depressed Mood [2, 7]: 0 | Treatment Emergent Adverse Events: Diarrhoea [2, 7]: 0 | Treatment Emergent Adverse Events: Dry Eye [2, 7]: 0 | Treatment Emergent Adverse Events: Dyspepsia [2, 7]: 0 | Treatment Emergent Adverse Events: Ear and Labyrinth Disorders [2, 7]: 0 | Treatment Emergent Adverse Events: Epistaxis [2, 7]: 0 | Treatment Emergent Adverse Events: Euphoric Mood [2, 7]: 0 | Treatment Emergent Adverse Events: Hyperaesthesia [2, 7]: 0 | Treatment Emergent Adverse Events: Malaise [2, 7]: 0 | Treatment Emergent Adverse Events: Oropharyngeal Pain [2, 7]: 0 | Treatment Emergent Adverse Events: Pseudoparalysis [2, 7]: 0 | Treatment Emergent Adverse Events: Psychiatric Disorders [2, 7]: 0 | Treatment Emergent Adverse Events: Respiratory, Thoracic and Mediastinal Disorders [2, 7]: 0 | Treatment Emergent Adverse Events: Rhinorrhoea [2, 7]: 0 | Treatment Emergent Adverse Events: Skin Discomfort [2, 7]: 0 | Treatment Emergent Adverse Events: Skin Irritation [2, 7]: 0 | Treatment Emergent Adverse Events: Skin and Subcutaneous Tissue Disorders [2, 7]: 0 | Treatment Emergent Adverse Events: Somnoience [2, 7]: 0 | Treatment Emergent Adverse Events: Tinnitus [2, 7]: 0 | Treatment Emergent Adverse Events: Tremor [2, 7]: 0 | CL/F ([3]; single oral 3 mg dose, plasma): 41.4 (7.0) L/h | CL/F ([3]; single oral 10 mg dose, plasma): 42.3 (12.0) L/h | CL/F ([3]; single oral 30 mg dose, plasma): 46.9 (16.4) L/h | CL/F ([3]; single oral 60 mg dose, plasma): 34.0 (11.4) L/h | Cmax and AUC versus dose ([3]; healthy volunteers, 3-60 mg single oral doses): increased linearly with dose | time of peak concentrations after oral dosing ([3]; healthy volunteers, across dose groups 3-60 mg): 2 to 3 h | absorption ([3]; healthy volunteers, oral dosing): rapidly absorbed | Vd ([3]; male, human, plasma, oral): 1420 to 3090 L | half-life ([3]; male, human, plasma, oral): 28 to 50 h | AUC(0-inf) ([3]; male, human, plasma, po, 3 mg): 74.2 ng·h/mL | AUC(0-t) ([3]; male, human, plasma, po, 3 mg): 72.2 ng·h/mL | Cmax ([3]; male, human, plasma, po, 3 mg): 5.2 ng/mL | Tmax ([3]; male, human, plasma, po, 3 mg): 1.9 h | Vd/F ([3]; male, human, plasma, po, 3 mg): 2490 L | half-life ([3]; male, human, plasma, po, 3 mg): 40.9 h | AUC(0-inf) ([3]; male, human, plasma, po, 10 mg): 254 ng·h/mL | AUC(0-t) ([3]; male, human, plasma, po, 10 mg): 251 ng·h/mL | Cmax ([3]; male, human, plasma, po, 10 mg): 14.5 ng/mL | Tmax ([3]; male, human, plasma, po, 10 mg): 2.9 h | Vd/F ([3]; male, human, plasma, po, 10 mg): 3090 L | half-life ([3]; male, human, plasma, po, 10 mg): 49.2 h | AUC(0-inf) ([3]; male, human, plasma, po, 30 mg): 700 ng·h/mL | AUC(0-t) ([3]; male, human, plasma, po, 30 mg): 678 ng·h/mL | Cmax ([3]; male, human, plasma, po, 30 mg): 55.9 ng/mL | Tmax ([3]; male, human, plasma, po, 30 mg): 1.8 h | Vd/F ([3]; male, human, plasma, po, 30 mg): 1850 L | half-life ([3]; male, human, plasma, po, 30 mg): 27.6 h | AUC(0-inf) ([3]; male, human, plasma, po, 60 mg): 1960 ng·h/mL | AUC(0-t) ([3]; male, human, plasma, po, 60 mg): 1940 ng·h/mL | Cmax ([3]; male, human, plasma, po, 60 mg): 116 ng/mL | Tmax ([3]; male, human, plasma, po, 60 mg): 2.4 h | Vd/F ([3]; male, human, plasma, po, 60 mg): 1420 L | half-life ([3]; male, human, plasma, po, 60 mg): 29.1 h | Cmax ([3]; male, human, serum, oral, 3 mg): 5.2 ng/mL | Cmax ([3]; male, human, serum, oral, 10 mg): 14.5 ng/mL | Cmax ([3]; male, human, serum, oral, 30 mg): 55.9 ng/mL | Cmax ([3]; male, human, serum, oral, 60 mg): 116 ng/mL | mean AUC/24 hr [3, 8]: 3.1 ng/mL | time after administration at which mean Cmax was observed [3, 8]: 1.9 h | mean AUC/24 hr [3, 9]: 10.6 ng/mL | time after administration at which mean Cmax was observed [3, 9]: 2.9 h | mean AUC/24 [3, 10]: 29.2 ng/mL | time after administration at which mean Cmax was observed [3, 10]: 1.75 h | mean AUC/24 [3, 11]: 61 ng/mL | time after administration at which mean Cmax was observed [3, 11]: 1.75 h
